Consider ten compounds from patent publication US20130123271A1, “HETEROCYCLIC COMPOUNDS, THEIR PREPARATION AND THERAPEUTIC APPLICATION” (FOVEA PHARMACEUTICALS, priority 2010, published 2013).

Structures are written as SMILES. Values after ≈ are worked out from the molar mass of the structure shown.

The target in one data set is Src/Lyn (h) (Homo sapiens, UniProt P12931). Kind of data set: In vitro potency Src/Lyn (h), Table 2. Format: biochemical.
Data set [1] in a line: Ussing chamber permeation study through rabbit cornea. In kind it is in vitro ADME. The settings on record: 37° C., 0.5 cm2 rabbit cornea. How it is done: Ussing chambers were used for the permeation study each day of experiment.
3 mL of solution were placed in donor side of Ussing chambers and 3 mL of Ringer solution were in receiver side. Freshly removed rabbit corneal tissue were placed between the two half chambers.
Temperature was maintained at 37° C. during all the flux study and oxygenation was provided by a continuous perfusion of carbogen (oxygen/carbonic acid) (95/5),
Rabbits were euthanized and the 6 corneas were removed and used immediately. 500 μL of receptor side liquid were removed from Ussing chambers and replaced by fresh buffer. The samples were analyzed immediately (less than 10 hours after collection).
100 μL of donor side liquid were removed from Ussing chambers and not replaced. The samples were diluted immediately (less than 1 hour) after collection and analyzed less than 10 hours after dilution. Analysis was performed on HPLC (Stationary phase: C18 (Particle size: 3 μm Length: 5 cm, using a gradient from 5 to 95% ACN/water (0.1% formic acid)).
At the end of the sampling period, all corneas were discarded.

A short description of data set [2]: Solubility in HPbCD 7% pH 5. In kind it is physicochemical. The settings on record: HPbCD 7% solution, aqueous with cosolvent or surfactant or cyclodextrin, read-out: Solubility HPbCD 7% pH 5 (mg/ml) measured.
For a further data set, the target named is h Src (Homo sapiens, UniProt P12931). Kind of data set: LC3000 Src assay (off-chip incubation mobility-shift kinase assay, Caliper LabChip). In kind it is biochemical. The settings on record: ATP at KM apparent. The method, then: The screening and profiling experiments described here were performed using Caliper Life Sciences' proprietary LabChip™ technology. Caliper LC3000 and EZ Reader II instruments are widely used throughout the drug discovery process for assay development, primary screening, selectivity screening, generation of Structure-Activity Relationships (SARs) and Mechanism of Action (MOA) studies. The LabChip™ technology is particularly well suited for enzymatic ‘targets’ such as kinases, proteases, phosphatases, histone deacetylases (HDAC), phosphodiesterases (PDE), and acyl-transferases. The key benefit of the technology is the separation and direct measurement of substrates and products, which allows for higher signal-to-noise ratios and fewer false positive/negative results. This direct measurement also allows for the identification and elimination of enzymatic activities that are not associated with the kinase reaction of interest.
Sequence of h Src (P12931 whole entry): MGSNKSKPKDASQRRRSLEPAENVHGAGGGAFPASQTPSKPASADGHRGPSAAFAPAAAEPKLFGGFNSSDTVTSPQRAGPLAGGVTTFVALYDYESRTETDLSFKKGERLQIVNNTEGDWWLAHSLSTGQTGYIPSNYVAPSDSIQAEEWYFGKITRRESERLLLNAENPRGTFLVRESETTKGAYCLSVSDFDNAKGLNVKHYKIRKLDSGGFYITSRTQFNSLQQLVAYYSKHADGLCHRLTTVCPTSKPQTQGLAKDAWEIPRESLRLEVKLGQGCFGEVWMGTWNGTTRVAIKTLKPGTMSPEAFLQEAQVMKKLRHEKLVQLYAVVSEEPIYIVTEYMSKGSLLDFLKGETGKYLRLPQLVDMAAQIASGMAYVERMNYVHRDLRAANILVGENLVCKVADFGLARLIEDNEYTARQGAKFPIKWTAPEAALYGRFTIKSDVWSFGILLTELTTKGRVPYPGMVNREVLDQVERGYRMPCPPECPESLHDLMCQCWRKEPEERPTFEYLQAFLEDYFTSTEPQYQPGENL
The off-chip incubation mobility-shift kinase assay uses a microfluidic chip to measure the conversion of a fluorescent peptide substrate to a phosphorylated product. The reaction mixture, from a microtiter plate well, is introduced through a capillary sipper onto the chip, where the nonphosphorylated substrate and phosphorylated product are separated by electrophoresis and detected via laser-induced fluorescence. […] The phosphorylated product migrates through the chip faster than the non-phosphorylated substrate, and signals from the two forms of the peptide appear as distinct peaks. Caliper's data analysis software (HTSWA) determines peak heights, from which the ratio of product to the peak sum P/(P+S) and percent (%) conversion is calculated. This value is used to compare compound wells to control wells present on the plate, and thereby determine the % inhibition values for the compound. The formula used to calculate % inhibition is as follows, where C100% is the average % conversion of the 100% activity wells and C0% is the average % conversion of the 0% activity wells:
(1-(%conversionofsample—C0%)/(C100%−C0%))*100
Compounds were dissolved in 100% DMSO and diluted to 25× the final desired screening concentration. Serial dilutions were performed to obtain the concentrations specified for particular studies. One μl of each concentration was transferred, in duplicate, to a 384-well Greiner microtiter plate. Generally, 12 μL of enzyme buffer containing purified kinase (various suppliers), 100 mM HEPES, pH 7.5, 1 mM DTT (Calbiochem, 2333153), 10 mM MgCl2 (Sigma, M-1028) or 10 mM MnCl2 (Sigma, M-1787) (assay specific), and 0.002% Brij-35 (Sigma, B4184) was added to each well. Compound and enzyme were allowed to pre-incubate for 15 minutes. 12 μL of peptide/ATP buffer containing 100 mM HEPES, pH 7.5, 1.5 μM fluorescein-labeled peptide (specific to kinase of interest), ATP (at KM apparent, Sigma, A9187), and 0.002% Brij-35 was then added to each well to initiate the reaction. Generally, reactions were incubated for 1-1.5 hours at room temperature to obtain adequate (15-40%) conversion of peptide to phosphorylated product in the linear range of the reaction. Reactions were terminated with the addition of 45 μL of Stop Buffer (containing 20 mM EDTA). Plates were then read on the LabChip 3000 using a 12-sipper LabChip. % conversion values and % inhibition values were obtained as described and IC50 curves of compounds were generated using Graphpad Prism Version 4 or 5.01. A nonlinear curve fit using the sigmoidal dose response—variable slope fit was used to graph IC50 curves and determine IC50 values and hillslopes.

For data set [3], the system named is choroidal neovascularisation. Kind of data set: Rat model of laser-induced choroidal neovascularization (CNV). Format: in vivo, rat (Brown Norway). Particulars: topical solution 6 mg/mL (10 μL) two times daily, 14 days after laser induction. How it is done: We investigated the efficacy of topical administration of compound 25 of the invention in reducing choroidal neovascularisation in the rat (Brown Norway, 8 weeks of age).
On day 1, CNV was performed by laser photocoagulation-induced rupture of Bruch's membrane as previously described (Edelman and Casto 2000). An Argon green laser irradiation was delivered through the slit lamp for induce photocoagulation. In each eye, 6-7 focal laser spots were applied concentrically approximately two optic discs from the center. Immediately afterwards, rats were treated with topical solution 6 mg/mL (10 μL) two times daily until sacrifice. 14 days after laser induction of CNV blood vessels were visualized on retinal pigment epithelium-choroid-sclera flat-mount by immunostaining with isolectin B4.
Assessment of CNV response to treatment was performed after capture and area measurement of immunostained vessels representing CNV at the site of laser burn.
Pixel area of vascular budding was traced by 2 trained masked investigators and converted to μm^2.

The next data set in a line: Colour of the compound. In kind it is physicochemical. Particulars: powder.

Sequence of Src/Lyn (h) (P12931 whole entry): as above

In general, IC50 refers to the concentration at which inhibition is half-maximal. Turning to `Oc1ccc(Cl)c(-c2ccc3nc(Nc4ccc(OCCN5CCCC5)nc4)nn3c2)c1` [Compound 25, 4-Chloro-3-{2-[6-(2-pyrrolidin-1-yl-ethoxy)-pyridin-3-ylamino]-[1,2,4]triazolo[1,5-a]pyridin-6-yl}-phenol], the IC50 on Src/Lyn (h) and at h Src was 23 nM throughout. Further, the “Flux between 2 and 4 hours through 0.5 cm2 of rabbit cornea (μg/h/cm2)” value in data set [1] is recorded as 14 μg/h/cm2. The solubility in data set [2] turned out to be 6.5 mg/mL (≈ 14.4 mM). Further, the “reduction of CNV compared to control” value in data set [3] is 15%. Besides, the Colour entry in “Colour of the compound” was “White”.

In the case of `Cc1nc(Nc2nc3ccc(-c4cc(O)ccc4Cl)cn3n2)cc(N2CCN(CCO)CC2)n1` [Compound 27, 4-Chloro-3-(2-{6-[4-(2-hydroxy-ethyl)-piperazin-1-yl]-2-methyl-pyrimidin-4-ylamino}-[1,2,4]triazolo[1,5-a]pyridin-6-yl)-phenol], the 50% inhibitory concentration (IC50) at Src/Lyn (h) and at h Src was 83 nM each time. For the same compound, the “Flux between 2 and 4 hours through 0.5 cm2 of rabbit cornea (μg/h/cm2)” value in data set [1] is on record as 19 μg/h/cm2. The solubility in data set [2] was more than 10 mg/mL. Moreover, the Colour entry in “Colour of the compound” is given as “White”.

In the case of `Cc1cc(Nc2nc3ccc(-c4cc(O)ccc4Cl)cn3n2)cc(N2CCN(CCO)CC2)c1` [Compound 28, 4-Chloro-3-(2-{3-[4-(2-hydroxy-ethyl)-piperazin-1-yl]-5-methyl-phenylamino}-[1,2,4]triazolo[1,5-a]pyridin-6-yl)-phenol], the concentration for half-maximal inhibition (IC50) at Src/Lyn (h) and on h Src was 3 nM in each case. In addition, the “Flux between 2 and 4 hours through 0.5 cm2 of rabbit cornea (μg/h/cm2)” value in data set [1] is listed as 8 μg/h/cm2. Also, the solubility in data set [2] was found to be 7.5 mg/mL (≈ 15.7 mM). Besides, the Colour entry in the data set “Colour of the compound” is “White”.

In the case of `OCc1cc(Nc2ncc3cc(-c4cc(O)ccc4Cl)ccc3n2)ccn1` [Compound 43, 4-Chloro-3-[2-(2-hydroxymethyl-pyridin-4-ylamino)-quinazolin-6-yl]-phenol], the IC50 at Src/Lyn (h) and at h Src was 0.7 nM in each case. Moreover, the “Flux between 2 and 4 hours through 0.5 cm2 of rabbit cornea (μg/h/cm2)” value in data set [1] was 6 μg/h/cm2. For the same compound, in data set [2], the solubility worked out at 1.5 mg/mL (≈ 3.96 mM). For the same compound, the Colour result in “Colour of the compound” is “Pale”.

Regarding `OCCn1cnc2cc(Nc3ncc4cc(-c5cc(O)ccc5Cl)ccc4n3)ccc21` [Compound 45, 4-Chloro-3-{2-[1-(2-hydroxy-ethyl)-1H-benzoimidazol-5-ylamino]-quinazolin-6-yl}-phenol], the IC50 against Src/Lyn (h) came out at 1 nM; on h Src, 0.5 nM. In addition, the “Flux between 2 and 4 hours through 0.5 cm2 of rabbit cornea (μg/h/cm2)” value in data set [1] is recorded as 8 μg/h/cm2. In addition, in data set [2], the solubility came out at 2.3 mg/mL (≈ 5.33 mM). Besides, the Colour entry in the data set “Colour of the compound” was “Pale”.

For the compound `Cc1cc(Nc2ncc3cc(-c4cc(O)ccc4Cl)ccc3n2)cc(N2CCN(CCO)CC2)c1` [Compound 46, 4-Chloro-3-(2-{3-[4-(2-hydroxy-ethyl)-piperazin-1-yl]-5-methyl-phenylamino}-quinazolin-6-yl)-phenol], the IC50 against Src/Lyn (h) and at h Src was 0.8 nM each time. In addition, the “Flux between 2 and 4 hours through 0.5 cm2 of rabbit cornea (μg/h/cm2)” value in data set [1] is reported as 13 μg/h/cm2. In addition, the solubility in data set [2] is more than 10 mg/mL. For the same compound, the Colour entry in the data set “Colour of the compound” was “Pale”.

Take `OCc1cc(CO)cc(Nc2nc3ccc(-c4cc(O)ccc4Cl)cn3n2)c1` [compound 5, 3-[2-(3,5-Bis-hydroxymethyl-phenylamino)-[1,2,4]triazolo[1,5-a]pyridin-6-yl]-4-chloro-phenol]: the IC50 against Src/Lyn (h) and on h Src was 5 nM in each case. Moreover, the “Flux between 2 and 4 hours through 0.5 cm2 of rabbit cornea (μg/h/cm2)” value in data set [1] came out at 13 μg/h/cm2. For the same compound, the solubility in data set [2] is 1.3 mg/mL (≈ 3.28 mM). Further, the Colour result in the data set “Colour of the compound” is recorded as “White”.

In the case of `OCCN1CCN(c2ccc(Nc3nc4ccc(-c5cc(O)ccc5Cl)cn4n3)cn2)CC1` [compound 10, 4-Chloro-3-(2-{6-[4-(2-hydroxy-ethyl)-piperazin-1-yl]-pyridin-3-ylamino}-[1,2,4]triazolo[1,5-a]pyridin-6-yl)-phenol], the IC50 on Src/Lyn (h) and at h Src was 14 nM in each case. Besides, the “Flux between 2 and 4 hours through 0.5 cm2 of rabbit cornea (μg/h/cm2)” value in data set [1] was 30 μg/h/cm2. The solubility in data set [2] was 5.69 mg/mL (≈ 12.2 mM). Further, the Colour entry in the data set “Colour of the compound” is reported as “White”.

Take `OCc1cc(Nc2nc3ccc(-c4cc(O)ccc4Cl)cn3n2)ccn1` [compound 13, 4-Chloro-3-[2-(2-hydroxymethyl-pyridin-4-ylamino)-[1,2,4]triazolo[1,5-a]pyridin-6-yl]-phenol]: the IC50 at Src/Lyn (h) and on h Src was 27 nM in each case. In data set [1], the “Flux between 2 and 4 hours through 0.5 cm2 of rabbit cornea (μg/h/cm2)” value is recorded as 13 μg/h/cm2. Besides, the solubility in data set [2] worked out at 2.38 mg/mL (≈ 6.47 mM). The Colour result in “Colour of the compound” is “White”.

In the case of `OCc1cc(CO)cc(Nc2ncc3cc(-c4cc(O)ccc4Cl)ccc3n2)c1` [compound 16, 3-[2-(3,5-Bis-hydroxymethyl-phenylamino)-quinazolin-6-yl]-4-chloro-phenol], the IC50 on Src/Lyn (h) was less than 1 nM; on h Src it was 0.1 nM. In addition, in data set [1], the “Flux between 2 and 4 hours through 0.5 cm2 of rabbit cornea (μg/h/cm2)” value was 17 μg/h/cm2. Further, in data set [2], the solubility came out at 1.2 mg/mL (≈ 2.94 mM). Further, in “Colour of the compound”, the Colour entry is “Pale”.
